Several values for one entry are separate records, joined by “and”; a condition that tells them apart may be missing. Equal entries are not always repeated. Where two headings read alike, the source gives them in different places.
Legend:
[1] = system: HepG2 human cancer-cell line; assay: MTT antiproliferative assay, HepG2; type: cell-based
Description: (§1) Selected compounds were evaluated in vitro for their antiproliferative activities against HepG2 and MCF-7 human cancer-cell lines using MTT assays. Cell viabilities and IC50 values were obtained and compared with those of the control, doxorubicin (Table 1).
(§2) The antiproliferative activity of the test compounds against HepG2, and MCF-7 human cancer-cell lines were evaluated by MTT assay. The detailed methodology procedure was reported. […]

[2] = system: MCF-7 human cancer-cell line; assay: MTT antiproliferative assay, MCF-7; type: cell-based
Description: as §1, §2

MCF-7 cells [3] = assay: Apoptosis by annexin-V FITC/PI double staining, MCF-7; type: cell-based, human; conditions: MCF-7, 48 h at the IC50 of the compound
Description: (§3) Apoptosis was detected for both HepG2 and MCF-7cells using the same preparation and sample treatment conditions as those used for cell-cycle analysis. The manufacturer’s instructions for the annexin-V FITC apoptosis detection kit (K101, Biovision, Milpitas, CA, USA) were followed. In brief, treated cells were detached after 48 h by trypsinization, washed twice with cold PBS, and stained with 5 μL of annexin-V fluorescein isothiocyanate (annexin-V FITC) and 5 μL of PI in the binding buffer for 15 min at 37 °C. Finally, the processed cells were analyzed using a FACS Caliber flow cytometer (BD Biosciences and Co., Franklin Lakes, NJ, USA).

VEGFR-2 (KDR) = target: T1, VEGFR-2 (KDR) (Homo sapiens, UniProt P35968); assay: In vitro inhibition of VEGFR-2 (KDR) kinase assay kit; type: biochemical; conditions: for Fold Relative to Sorafenib: VEGFR-2 IC50 relative to sorafenib; for IC50: luminescence kinase kit, 0.0–10.0 μM range, read-out: IC50 nM, VEGFR-2 enzyme
T1 construct: purchased Cat. #40325
Description: At the indicated end of the experiment, the luminescence was measured by a Tecan spark microplate reader.

MCF-7 cells [4] = assay: Cell-cycle analysis by flow cytometry (PI), MCF-7; type: cell-based, human; conditions: MCF-7, 48 h at the IC50 of the compound
Description: (§4) To investigate whether the tested compounds could arrest HepG2 and MCF-7 mitotic cell division, cell distributions at cell-cycle phases were analyzed by flow cytometry following their treatment with the vehicle or the indicated compound at its IC50 concentration. Cells and samples were prepared as previously reported, and a PI (ab139418) Flow Cytometry Kit (Abcam, Cambridge, UK) was used in accordance with the manufacturer’s protocol. In brief, both HepG2 and MCF-7 cells were separate, plated into six-well plates at a density of 0.6 × 10^6 cells/well in DMEM growth medium supplemented with 10% FBS. Cells were incubated for 24 h at 37 °C and 5% CO2 prior to exposure to either the vehicle (DMSO) as the control or 13, 14, or 15, at their IC50 concentrations. […] All cells were incubated for 48 h, washed with cold PBS after being harvested to single-cell suspensions by trypsinization, and fixed with 70% ethanol. The fixed cells were rehydrated in PBS prior to being lysed in a prepared solution of PI, Triton X-100, and RNase. Finally, the cells were kept at 37 °C for 15 min and analyzed using a FACS Caliber flow cytometer (BD Biosciences and Co., Franklin Lakes, NJ, USA).

HepG2 cells [5] = assay: Apoptosis by annexin-V FITC/PI double staining, HepG2; type: cell-based, human; conditions: HepG2, 48 h at the IC50 of the compound
Description: as §3

HepG2 cells [6] = assay: Cell-cycle analysis by flow cytometry (PI), HepG2; type: cell-based, human; conditions: HepG2, 48 h at the IC50 of the compound
Description: as §4

[7] = MTT, 48 h of exposure, read-out: IC50 (μM) ± SD HepG2
[8] = Table S5, read-out: pIC50(exp) HepG2 (converted)
[9] = MCF7, MTT, 48 h of exposure, read-out: IC50 (μM) ± SD MCF-7
[10] = MCF7, Table S5, read-out: pIC50 (exp) MCF7 (converted)

T1 sequence (P35968 20-1356): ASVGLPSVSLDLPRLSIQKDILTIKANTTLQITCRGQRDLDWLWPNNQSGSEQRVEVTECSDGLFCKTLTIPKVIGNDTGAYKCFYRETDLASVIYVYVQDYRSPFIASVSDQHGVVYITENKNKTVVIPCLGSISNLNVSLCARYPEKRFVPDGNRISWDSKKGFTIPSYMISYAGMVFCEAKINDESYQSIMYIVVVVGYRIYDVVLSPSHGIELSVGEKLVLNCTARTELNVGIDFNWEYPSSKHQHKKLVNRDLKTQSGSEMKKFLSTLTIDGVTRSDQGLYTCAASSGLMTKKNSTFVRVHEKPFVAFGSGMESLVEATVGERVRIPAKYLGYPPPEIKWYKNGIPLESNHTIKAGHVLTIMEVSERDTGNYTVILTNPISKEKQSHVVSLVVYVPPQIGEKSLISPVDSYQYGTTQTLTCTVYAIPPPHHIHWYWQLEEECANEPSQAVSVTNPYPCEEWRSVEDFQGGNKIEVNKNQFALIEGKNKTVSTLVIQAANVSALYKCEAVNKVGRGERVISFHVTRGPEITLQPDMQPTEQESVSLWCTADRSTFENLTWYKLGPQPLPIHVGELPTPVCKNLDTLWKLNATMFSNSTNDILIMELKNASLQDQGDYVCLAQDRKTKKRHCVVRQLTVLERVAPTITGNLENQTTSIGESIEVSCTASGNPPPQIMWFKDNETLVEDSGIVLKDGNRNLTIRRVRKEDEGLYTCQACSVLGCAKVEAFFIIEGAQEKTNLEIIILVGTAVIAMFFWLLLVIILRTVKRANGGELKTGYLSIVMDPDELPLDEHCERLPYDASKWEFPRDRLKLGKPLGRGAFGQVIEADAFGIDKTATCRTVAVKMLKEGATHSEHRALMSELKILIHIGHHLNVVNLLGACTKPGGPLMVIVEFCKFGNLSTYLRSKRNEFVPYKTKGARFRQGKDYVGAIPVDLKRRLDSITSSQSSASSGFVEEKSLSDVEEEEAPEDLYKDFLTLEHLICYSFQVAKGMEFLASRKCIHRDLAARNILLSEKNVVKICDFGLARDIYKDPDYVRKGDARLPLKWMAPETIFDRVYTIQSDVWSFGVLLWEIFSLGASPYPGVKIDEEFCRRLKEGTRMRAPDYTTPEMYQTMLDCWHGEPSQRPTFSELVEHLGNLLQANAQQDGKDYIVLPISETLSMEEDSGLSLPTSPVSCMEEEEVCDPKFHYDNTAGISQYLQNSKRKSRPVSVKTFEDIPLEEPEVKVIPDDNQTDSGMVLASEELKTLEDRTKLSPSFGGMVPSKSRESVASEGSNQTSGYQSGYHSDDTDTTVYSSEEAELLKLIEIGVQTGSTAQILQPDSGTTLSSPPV

Row | SMILES | IC50 [1, 7] [µM] | IC50 [1, 8] [µM] | IC50 [2, 9] [µM] | IC50 [2, 10] [µM] | melting point [°C] | other results
1 | Cc1cccc(CSc2nc3cc4ccccc4cc3c(=O)n2C)c1 [Compound 5, 3-Methyl-2-((3-methylbenzyl)thio)benzo[g]quinazolin-4(3H)-one] | 31.3 ± 3.1 | 31.3 | 10.6 ± 0.7 | 10.6 | 155 to 157 | –
2 | Cn1c(SCc2ccccc2)nc2cc3ccccc3cc2c1=O [Compound 4, 2-(Benzylthio)-3-methylbenzo[g]quinazolin-4(3H)-one] | 34.8 ± 3.1 | 34.8 | 10.2 ± 1.1 | 10.2 | 150 to 152 | –
3 | COc1cccc2c1C(=O)c1c(O)c3c(c(O)c1C2=O)C[C@@](O)(C(=O)CO)C[C@@H]3O[C@H]1C[C@H](N)[C@H](O)[C@H](C)O1 [Doxorubicin, reference compound] | 28.5 ± 1.9 | – | 10.3 ± 0.8 | – | – | –
4 | Cn1c(=S)[nH]c2cc3ccccc3cc2c1=O [Compound 1, 3-Methyl-2-thioxo-2,3-dihydrobenzo[g]quinazolin-4(1H)-one] | 40.4 ± 4.1 | 40.4 | 10.7 ± 1.1 | 10.7 | – | –
5 | COc1cccc(CSc2nc3cc4ccccc4cc3c(=O)n2C)c1 [Compound 8, 2-((3-Methoxybenzyl)thio)-3-methylbenzo[g]quinazolin-4(3H)-one] | 31.3 ± 3.1 | 31.3 | 10.9 ± 0.9 | 10.9 | – | –
6 | CCn1c(SCc2cccc(OC)c2)nc2cc3ccccc3cc2c1=O [Compound 13, 3-Ethyl-2-((3-methoxybenzyl)thio)benzo[g]quinazolin-4(3H)-one] | 27.5 ± 2.1 | 27.5 | 10.1 ± 1.1 | 10.1 | – | Apoptosis Early (MCF-7 cells [3]): 7.28%; Apoptosis Late (MCF-7 cells [3]): 14.94%; Apoptosis Total (MCF-7 cells [3]): 22.22%; Necrosis (MCF-7 cells [3]): 15% and 15.31%; Fold Relative to Sorafenib (VEGFR-2 (KDR)): 1.5 fold; IC50 (VEGFR-2 (KDR)): 46.6 ± 2.8 nM; Apoptosis Early (HepG2 cells [5]): 2.82%; Apoptosis Late (HepG2 cells [5]): 18.56%; Apoptosis Total (HepG2 cells [5]): 21.38%; Necrosis (HepG2 cells [5]): 5.74%; Cell Cycle Distribution %G0/G1 (HepG2 cells [6]): 38.22%; Cell Cycle Distribution %G2/M (HepG2 cells [6]): 6.52%; Cell Cycle Distribution %S (HepG2 cells [6]): 55.3% and 55.26%; Cell Cycle Distribution %G2/M (MCF-7 cells [4]): 4.36%; Cell Cycle Distribution %S (MCF-7 cells [4]): 33.25%
7 | CCSc1nc2cc3ccccc3cc2c(=O)n1CC [Compound 9, 3-Ethyl-2-(ethylthio)benzo[g]quinazolin-4(3H)-one] | 31.7 ± 3.1 | 31.7 | 10.2 ± 0.6 | 10.2 | 107 to 109 | –
8 | CCn1c(SCCCN2C(=O)c3ccccc3C2=O)nc2cc3ccccc3cc2c1=O [Compound 15, 2-(3-((3-Ethyl-4-oxo-3,4-dihydrobenzo[g]quinazolin-2-yl)thio)propyl)isoindoline-1,3-dione] | 26 ± 2.5 | 28 | 9.4 ± 0.7 | 9.4 | – | Apoptosis Early (MCF-7 cells [3]): 5.57%; Apoptosis Late (MCF-7 cells [3]): 19.73%; Apoptosis Total (MCF-7 cells [3]): 25.3%; Necrosis (MCF-7 cells [3]): 8.14%; Fold Relative to Sorafenib (VEGFR-2 (KDR)): 1.4 fold; IC50 (VEGFR-2 (KDR)): 44.4 ± 2.6 nM; Apoptosis Early (HepG2 cells [5]): 3.44%; Apoptosis Late (HepG2 cells [5]): 14.4%; Apoptosis Total (HepG2 cells [5]): 17.84%; Necrosis (HepG2 cells [5]): 6.27%; Cell Cycle Distribution %G0/G1 (HepG2 cells [6]): 31.15%; Cell Cycle Distribution %G2/M (HepG2 cells [6]): 39.2% and 39.24%; Cell Cycle Distribution %S (HepG2 cells [6]): 29.61%; Cell Cycle Distribution %G0/G1 (MCF-7 cells [4]): 43.25%; Cell Cycle Distribution %G2/M (MCF-7 cells [4]): 28.0% and 28.03%; Cell Cycle Distribution %S (MCF-7 cells [4]): 28.72%
9 | CCn1c(NN)nc2cc3ccccc3cc2c1=O [Compound 17] | 29.8 ± 2.1 | 29.8 | 10.1 ± 0.7 | 10.1 | – | –
10 | CCn1c(=S)[nH]c2cc3ccccc3cc2c1=O [Compound 2, 3-Ethyl-2-thioxo-2,3-dihydrobenzo[g]quinazolin-4(1H)-one] | 36.1 ± 3.6 | 36.1 | 10.5 ± 0.5 | 10.5 | – | –

The remaining compounds from weak to strong by IC50 [1, 7], led by results:

Row | IC50 [1, 7] [µM] | IC50 [1, 8] [µM] | IC50 [2, 9] [µM] | IC50 [2, 10] [µM] | melting point [°C] | SMILES | other results
11 | 36.2 ± 3.5 | 36.2 | 8.8 ± 0.5 | 8.79 | 132 to 134 | CCn1c(SCc2ccccc2)nc2cc3ccccc3cc2c1=O [Compound 10, 2-(Benzylthio)-3-ethylbenzo[g]quinazolin-4(3H)-one] | Apoptosis Early (MCF-7 cells [3]): 4.64%; Apoptosis Late (MCF-7 cells [3]): 17.03%; Apoptosis Total (MCF-7 cells [3]): 21.67%; Necrosis (MCF-7 cells [3]): 9.61%; Fold Relative to Sorafenib (VEGFR-2 (KDR)): 4.5 fold; IC50 (VEGFR-2 (KDR)): 134 ± 8.2 nM; Cell Cycle Distribution %G0/G1 (MCF-7 cells [4]): 39.28%; Cell Cycle Distribution %G2/M (MCF-7 cells [4]): 34.6% and 34.55%; Cell Cycle Distribution %S (MCF-7 cells [4]): 26.17%
12 | 36 ± 3.1 | 36 | 9.8 ± 1.2 | 9.8 | 201 to 203 | Cn1c(SCc2ccc(C#N)cc2)nc2cc3ccccc3cc2c1=O [Compound 7, 4-(((3-Methyl-4-oxo-3,4-dihydrobenzo[g]quinazolin-2-yl)thio)methyl)benzonitrile] | –
13 | 34.2 ± 2.9 | 34.2 | 10.6 ± 1.1 | 10.6 | 140 to 142 | CCn1c(SCc2cccc(C#N)c2)nc2cc3ccccc3cc2c1=O [Compound 11, 3-(((3-Ethyl-4-oxo-3,4-dihydrobenzo[g]quinazolin-2-yl)thio)methyl)benzonitrile] | –
14 | 30.7 ± 3.1 | 30.7 | 11.2 ± 0.9 | 11.2 | 186 to 188 | CCn1c(SCc2cccc(C)c2)nc2cc3ccccc3cc2c1=O [Compound 12, 3-Ethyl-2-((3-methylbenzyl)thio)benzo[g]quinazolin-4(3H)-one] | –
15 | 29.9 ± 2.5 | 29.9 | 10.1 ± 0.7 | 10.1 | 115 to 117 | CCSc1nc2cc3ccccc3cc2c(=O)n1C [Compound 3, 2-(Ethylthio)-3-methylbenzo[g]quinazolin-4(3H)-one] | –
16 | 28.9 ± 2.3 | 28.9 | 10.4 ± 1.1 | 10.4 | – | Cn1c(NN)nc2cc3ccccc3cc2c1=O [Compound 16] | –
17 | 28.8 ± 2.6 | 28.8 | 10.7 ± 1.1 | 10.7 | 190 to 192 | Cn1c(SCc2ccc(Cl)cc2)nc2cc3ccccc3cc2c1=O [Compound 6, 2-((4-Chlorobenzyl)thio)-3-methylbenzo[g]quinazolin-4(3H)-one] | –
18 | 27.7 ± 2.5 | 27.7 | 9.6 ± 0.5 | 9.6 | 190 to 192 | CCn1c(SCCN2CCCCC2)nc2cc3ccccc3cc2c1=O [Compound 14, 3-Ethyl-2-((2-(piperidin-1-yl)ethyl)thio)benzo[g]quinazolin-4(3H)-one] | Apoptosis Early (MCF-7 cells [3]): 5.08%; Apoptosis Late (MCF-7 cells [3]): 25.68%; Apoptosis Total (MCF-7 cells [3]): 30.76%; Necrosis (MCF-7 cells [3]): 11.75%; Fold Relative to Sorafenib (VEGFR-2 (KDR)): 2.0 fold; IC50 (VEGFR-2 (KDR)): 63 ± 3.9 nM; Apoptosis Early (HepG2 cells [5]): 2.97%; Apoptosis Late (HepG2 cells [5]): 13.42%; Apoptosis Total (HepG2 cells [5]): 16.39%; Necrosis (HepG2 cells [5]): 6.33%; Cell Cycle Distribution %G0/G1 (HepG2 cells [6]): 38.66%; Cell Cycle Distribution %G2/M (HepG2 cells [6]): 9.03%; Cell Cycle Distribution %S (HepG2 cells [6]): 52.3% and 52.31%; Cell Cycle Distribution %G0/G1 (MCF-7 cells [4]): 66.24%; Cell Cycle Distribution %G2/M (MCF-7 cells [4]): 6.58%; Cell Cycle Distribution %S (MCF-7 cells [4]): 27.18%

Source: paper PMC7765401, “Antiproliferative and Antiangiogenic Properties of New VEGFR-2-targeting 2-thioxobenzo[g]quinazoline Derivatives (In Vitro)” (Molecules, 2020)
